One test has as its system Adult female rats. Kind of test: Ovulation inhibition in adult female rats (ova in the oviduct on the day of estrus). Format: in vivo. The settings on record: Rattus norvegicus, po; administered orally at noon on the day of proestrus; dose giving a 50% decrease in the number of ovulating non-control rats relative to control rats; read-out: Minimum effective inhibitory dose in mg per kilogram of rat weight. The method, then:
The degree of ovulation inhibitory activity was determined according to the following protocol.
Adult female rats with regular estrus cycles of four days each are employed. The estrus cycle consists of 2 days of diestrus followed by a day of proestrus and then a day of estrus. […] On the afternoon of proestrus, luteinizing hormone (LH) is released into the blood by the pituitary gland. The LH travels to the ovary where it induces ovulation, resulting in the presence of eggs in the oviduct on the day of estrus.
The test compound is administered orally to the non-control rats at noon on the day of proestrus. Both control and non-control rats are sacrificed on the following day (estrus). The oviduct is removed from each rat and examined microscopically for the presence of ova.
Melatonin is included in Table I for comparative purposes.

In the next test the test system is ovulation. Conditions: compared to melatonin; cited from earlier work.
Another test concerns rats and mice. The settings on record: cited from earlier work.

The structures appear in SMILES notation. Bounds are passed on as bounds.

`COc1cc2c(C(C)CNC(C)=O)c[nH]c2c(Cl)c1Cl` (racemic) [β-Methyl-6,7-dichloro-melatonin, β-methyl-6,7-dichloromelatonin]: the minimal effective dose in the test on Adult female rats stood at 15 mg/kg.

On to `COc1cc2c(CCNC(C)=O)c[nH]c2cc1Cl` [6-chloromelatonin], for which, in the test on ovulation, the ovulation blocking activity entry was “increased ovulation blocking activity”. Regarding `COc1cc2c(CC(C)NC(C)=O)c[nH]c2cc1Cl` (stereo not drawn) [α-Methyl-6-chloromelatonin], in the test on ovulation, the ovulation blocking activity result is given as “no increased ovulation-blocking activity”. As to `COc1cc2c([C@H](C)CNC(C)=O)c[nH]c2cc1Cl` [S-(-)-β-methyl-6-chloromelatonin], the minimal effective dose in the test with Adult female rats is above 5 mg/kg.

With `COc1ccc2[nH]cc([C@@H](C)CNC(C)=O)c2c1` [R-(+)-β-methyl melatonin, R-(+)-β-Methylmelatonin], the minimal effective dose in the test with Adult female rats is 1 mg/kg.

As to `COc1ccc2[nH]cc(C(C)CNC(C)=O)c2c1` (racemic) [β-methyl melatonin, β-Methylmelatonin], the minimal effective dose with Adult female rats is 1 mg/kg. For the molecule `COc1ccc2[nH]cc(CCNC(C)=O)c2c1` [Melatonin, N-[2-(5-methoxy-3-indolyl)ethyl]acetamide], the minimal effective dose with Adult female rats was 32 mg/kg. Moreover, the “inhibition of the estrous phase of the estrous cycle and of ovulation” value in the test with rats and mice is “inhibited both the estrous phase of the estrous cycle and ovulation”.

As to `COc1cc2c([C@@H](C)CNC(C)=O)c[nH]c2cc1Cl` [R-(+)-β-methyl-6-chloromelatonin], in the test on Adult female rats, the minimal effective dose was 1 mg/kg. For `CCC(CNC(C)=O)c1c[nH]c2ccc(OC)cc12` (racemic) [β-ethyl melatonin, β-Ethylmelatonin], the minimal effective dose in the test with Adult female rats was determined as 1 mg/kg. The same measure, in the same setting: next, `COc1cc2c(C(C)CNC(C)=O)c[nH]c2cc1Cl` (racemic) [β-methyl-6-chloro-melatonin, β-Methyl-6-chloromelatonin]: 2 mg/kg. `COc1cc2c(CCNC(C)=O)c[nH]c2cc1F` [6-fluoromelatonin]: the ovulation blocking activity result in the test with ovulation is “increased ovulation blocking activity”.

Values taken from patent EP0281242B1, “Beta-alkylmelatonins” (ELI LILLY AND COMPANY, priority 1987, dated 1988).
